Numbers after ± are expanded uncertainties.
Assays:
[1] = DTA
[2] = Molar enthalpy of transition or fusion; settings: DSC

Normal melting temperature ([1]; Crystal 1): 168.70 ± 1.5 °C
Triple point temperature ([1]; Crystal 2): 412.65 ± 1 K
Molar enthalpy of transition or fusion ([2]; Crystal 1): 2.76 ± 0.0478 kcal/mol
Molar enthalpy of transition or fusion ([2]; Crystal 2): 0.153 ± 0.00239 kcal/mol
SMILES: O=C[O-].[K+] [potassium formate]

Source: the NIST ThermoML archive (doi:10.1021/je400255c)
